The values below come from US9649314B2, “Pyrimido[4,5-b]quinoline-4,5(3H,10H)-diones” (NOVARTIS AG, priority 2012, dated 2017).

pEC50: −log10 of the molar value.

Assay [1] deals with α-L-iduronidase W402X. The assay is described as follows: α-L-iduronidase-W402X assay (restored enzyme activity in cell lysates, 4-MU iduronide substrate). It counts as cell-based, human. The conditions noted are these: 48 h treatment; for W402X Amax [%]: paromomycin 14 mM as reference control; for AC50: Homo sapiens. As for the experimental part:
(§1) Activity of compounds of the present invention was examined using a functional readout for two clinically common stop codon (TAG) mutants (Q70X, W402X) of the lysosomal enzyme α-L-iduronidase. Lack of α-L-iduronidase expression in such stop codon patients leads to the lysosomal storage disorder Mucopolysaccharidosis I (MPSI) also called Hurler syndrome.
(§2) Reporter constructs analogous to constructs above were expressed. In the assay, 2500 cells/well were treated for 48 h with compound, washed with PBS and lysed (0.4 M Sodiumformate, 0.1% NaN3, 0.9% NaCl, 0.2% Triton, pH 3.5). Restored α-L-iduronidase activity in cell lysates was measured with the fluoresecent 4-MU iduronide substrate (4 Methylumbelliferyl α-L-iduronide) after 45 min incubation. Again, paromomycin was used as reference control (14 mM).

Assay [2] has as its system α-L-iduronidase Q70X. The assay is described as follows: α-L-iduronidase-Q70X assay (restored enzyme activity in cell lysates, 4-MU iduronide substrate). Format: cell-based, human. The conditions noted are these: 48 h treatment; for Q70X Amax [%]: paromomycin 14 mM as reference control; for AC50: Homo sapiens. As for the experimental part:
as §1, §2

In assay [3] the test system is CFTR-Y122X. The assay is described as follows: CFTR-Y122X assay (dual reporter isogenic Hek293 cell lines, Renilla luminescence readthrough). Conditions: Homo sapiens, HEK293; for Emax / AC50: nonsense mutation suppression, 24 h incubation; for Emax: 100% = 14 mM paromomycin, tested up to 100 μM, read-out: Amax [%]. It counts as cell-based. The method in brief:
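Stable isogenic HEK dual-reporter line (eGFP–CFTR Y122X TGA PTC–myc–Renilla); 2000 cells/well, 24 h, then compound (10 μM; tested up to 100 μM) 24 h at 37 °C. Renilla luminescence normalised to neutral (0%) and 14 mM paromomycin (100%); wildtype construct counterscreen.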

Assay [4] relates to human coagulation factor F9 containing the R29X (TAG) mutation. The assay is described as follows: F9-R29X assay (full length F9 expression in isogenic HekR4 cells, imaging / F9 ELISA). The conditions noted are these: nonsense mutation suppression; for AC50: Homo sapiens. It counts as cell-based. As for the experimental part: Activity of compounds of the present invention was examined using reporter constructs of full length human coagulation factor F9 containing the R29X (TAG) mutation known from hemophilia B patients (“F9-R29X assay”). Full length F9 cDNA was stably expressed in the above isogenic HekR4 cell background. Stop codon readthrough and full length F9 expression was determined with a miniaturized confocal high throughput imaging assay. In paraformaldehyde fixed and permeabilized cells (10 uM compound; 24 h incubation) F9 expression was identified with a commercial F9 antibody raised against the F9 C-terminus. […] F9 staining intensity (Alexa-Fluor 488) and Draq5 nuclear staining served as readout for data calculation. Percent activity was measured in comparison to high (active control) and low controls (DMSO solvent).

With `Cn1c2ccccc2c(=O)c2c(=O)n(C3CCCCC3)c(-c3cccs3)nc21` [Example 2.17, 3-cyclohexyl-10-methyl-2-(thiophen-2-yl)pyrimido[4,5-b]quinoline-4,5(3H,10H)-dione], in assay [1], the “W402X Amax [%]” value stood at 211% and half-maximal activity (AC50) was put at 2.9 µM. Also, in assay [2], the “Q70X Amax [%]” value is 265% and the concentration at half-maximal activity (AC50) – broadly, the midpoint of the concentration-response curve, whichever way the signal moves – was found to be 2.1 µM. In assay [3], the Emax is 293% and the AC50 is 5.8 µM. Besides, in assay [4], the AC50 is 5.4 µM and the “Amax [%]” value worked out at 157%.

In the case of `Cn1c2ccccc2c(=O)c2c(=O)n(C3CCCCC3)c(-c3ccco3)nc21` [Example 2.20, 3-cyclohexyl-2-(furan-2-yl)-10-methylpyrimido[4,5-b]quinoline-4,5(3H,10H)-dione], in assay [1], the “W402X Amax [%]” value amounted to 189% and the activity was half-maximal at 0.9 µM (AC50). Moreover, in assay [2], the “Q70X Amax [%]” value amounted to 386% and the AC50 was 1 µM. For the same molecule, in assay [3], the Emax is 201% and the AC50 turned out to be 2.3 µM. Also, in assay [4], the AC50 was found to be 5.5 µM and the “Amax [%]” value is 158%.

Consider `CCc1nc2c(c(=O)c3ccccc3n2C)c(=O)n1C1CCCCCC1` [Example 2.31, 3-cycloheptyl-2-ethyl-10-methylpyrimido[4,5-b]quinoline-4,5(3H,10H)-dione], for which, in assay [1], the “W402X Amax [%]” value is 300% and the AC50 is 2.9 µM. Also, in assay [2], the “Q70X Amax [%]” value is reported as 438% and the AC50 was 1.7 µM. Moreover, in assay [3], the Emax stood at 67% and the activity was half-maximal at 2.5 µM (AC50). For the same molecule, in assay [4], half-maximal activity (AC50) was put at 1.9 µM and the “Amax [%]” value is reported as 167%.

For `Cn1c2ccccc2c(=O)c2c(=O)n(C3CCCCCC3)c(-c3cccc([N+](=O)[O-])c3)nc21` [Example 2.46, 3-cycloheptyl-10-methyl-2-(3-nitrophenyl)pyrimido[4,5-b]quinoline-4,5(3H,10H)-dione], in assay [3], the Emax is 12% and the AC50 worked out at 4.2 µM.

Consider `COc1ccc(-c2nc3c(c(=O)c4ccccc4n3C)c(=O)n2C2CCCCCC2)cc1` [Example 2.47, 3-cycloheptyl-2-(4-methoxyphenyl)-10-methylpyrimido[4,5-b]quinoline-4,5(3H,10H)-dione], for which, in assay [3], the Emax worked out at 10% and the AC50 is 3.1 µM.

Take `Cc1ccccc1-c1nc2c(c(=O)c3ccccc3n2C)c(=O)n1C1CCCCCC1` [Example 2.48, 3-cycloheptyl-10-methyl-2-(o-tolyl)pyrimido[4,5-b]quinoline-4,5(3H,10H)-dione]: in assay [3] (measured at 100 μM compound concentration (footnote d), read-out: Amax [%]: % nonsense mutation suppression relative to paromomycin reference activity), the Emax at 100 µM came out at 7%.

Turning to `Cn1c2ccccc2c(=O)c2c(=O)n(C3CCCC3)c(-c3ccco3)nc21` [Example 2.49, 3-cyclopentyl-2-(furan-2-yl)-10-methylpyrimido[4,5-b]quinoline-4,5(3H,10H)-dione], in assay [3], the Emax turned out to be 7% and the AC50 worked out at 1.8 µM.

For `Cn1c2ccccc2c(=O)c2c(=O)n(C3CCCCCC3)c(-c3cccc(Br)c3)nc21` [Example 2.50, 2-(3-bromophenyl)-3-cycloheptyl-10-methylpyrimido[4,5-b]quinoline-4,5(3H,10H)-dione], in assay [3], the Emax is 6% and the AC50 came out at 4.4 µM.

As to `CC(C)c1nc2c(c(=O)c3cccc(Cl)c3n2C)c(=O)n1C1CCCC1` [Example 2.51, 9-chloro-3-cyclopentyl-2-isopropyl-10-methylpyrimido[4,5-b]quinoline-4,5(3H,10H)-dione], the Emax at 25 µM in assay [3] (measured at 25 μM compound concentration (footnote a), read-out: Amax [%]: % nonsense mutation suppression relative to paromomycin reference activity) was determined as 6%.

Regarding `CCSc1nc2[nH]c3ccccc3c(=O)c2c(=O)n1-c1ccccc1` [Example 3.1, 2-(ethylthio)-3-phenylpyrimido[4,5-b]quinoline-4,5(3H,10H)-dione], in assay [3], the Emax turned out to be 65% and the AC50 was 5.8 µM.

Regarding `CN(C)c1nc2[nH]c3ccccc3c(=O)c2c(=O)n1-c1ccccc1` [Example 3.2, 2-(dimethylamino)-3-phenylpyrimido[4,5-b]quinoline-4,5(3H,10H)-dione], in assay [3], the Emax worked out at 294% and the AC50 stood at 11.6 µM.

For the molecule `CN(C)c1nc2c(c(=O)c3ccccc3n2C)c(=O)n1-c1ccccc1` [Example 3.3, 2-(dimethylamino)-10-methyl-3-phenylpyrimido[4,5-b]quinoline-4,5(3H,10H)-dione], in assay [3], the Emax is 18% and the AC50 was determined as 3.5 µM.

In the case of `NC[C@@H]1O[C@H](O[C@H]2[C@@H](O)[C@H](O[C@@H]3[C@@H](O)[C@H](N)C[C@H](N)[C@H]3O[C@H]3O[C@H](CO)[C@@H](O)[C@H](O)[C@H]3N)O[C@@H]2CO)[C@H](N)[C@@H](O)[C@@H]1O` [paromomycin, reference compound], in assay [3] (clone pursued for HTS assay development, read-out: EC50 (readthrough response of the selected clone)), the pEC50 (in general, the negative decadic logarithm of the EC50, by convention in mol/L) was 2.82.
